Test results reported in patent publication US20250302862A1, “SMALL RNA DRUG FOR INHIBITING ACTIVITY OF CANCER CELLS” (Institute of Basic Medical Sciences Chinese Academy of …, priority 2022, published 2025).

How the values were obtained:
[1] = test system: A549 cells; assay: Concentration-dependent proliferation inhibition, MTS; format: cell-based, human; conditions: concentration gradient, MTS 48 h after transfection
Experimental: (§1) 1) H460 and A549 cells with a cell density of more than 90% in 10 cm^2 dishes were plated in 96-well plates according to the cell growth rate, and transfected after 12 h, and the groups (3 wells per group) were divided as follows: • BLANK group: 20 uL of opti-MEM • negative control group (NC group) and experimental group: • A. 10 uL of opti-MEM and 0.2 uL of iMax were mixed well for 5 min • B. 10 uL of opti-MEM and small RNA were mixed well (the concentration gradient of H460 cell experimental group was set as: 0.01 noml/L, 0.03 noml/L, 0.1 noml/L, 0.39 noml/L, 0.78 noml/L, 1.56 noml/L, 3.125 noml/L, 6.25 noml/L, 12.5 noml/L, 25 noml/L, 50 noml/L, 100 noml/L; the concentration gradient of A549 cell experimental group was set as: 0.01 noml/L, 0.03 noml/L, 0.1 noml/L, 0.3 noml/L, 1 noml/L, 3 noml/L, 10 noml/L, 30 noml/L, 100 noml/L, 300 noml/L; the final concentration of sRNA in NC group was 100 noml/L) • C. solution A and solution B were mixed well and let stand for 15 min, and then was added at a 20 ul/well system • Note: 100 uL of nuclease-free water was added to 2 nmol of small RNA dry powder for dissolution at a storage concentration of 20 umol/L
(§2) 2) Detection of cell viability: MTS detection was performed after 48 h.
(§3) Formulation of MTS detection solution was as follows: opti-MEM:MTS A solution:MTS B solution=100:20:1. After removing the supernatant, 100 uL of MTS detection solution was added to each well and incubated for 0.5-2 h. Absorbance values at wavelengths of 490 nm and 630 nm were measured in a microplate reader.
(§4) 1) H460 and A549 cells with a cell density of more than 90% in 10 cm^2 dishes were plated in 96-well plates according to the cell growth rate, and transfected after 12 h, and the groups (3 wells per group) were divided as follows: • blank control group: 20 uL of opti-MEM • negative control group (NC group) and experimental group: • A. 10 uL of opti-MEM and 2 uL of iMax were mixed well for 5 min • B. 10 uL of opti-MEM and small RNA were mixed well (the concentration gradient of H460 cell experimental group was set as: 0.01 noml/L, 0.03 nmol/L, 0.1 noml/L, 0.3 noml/L, 1 noml/L, 3 noml/L, 10 noml/L, 30 noml/L, 100 noml/L, 300 noml/L, 400 noml/L, 500 noml/L; the concentration gradient of A549 cell experimental group was set as: 0.01 noml/L, 0.03 nmol/L, 0.1 noml/L, 0.3 noml/L, 1 noml/L, 3 noml/L, 10 noml/L, 30 noml/L, 100 noml/L, 300 noml/L; the final concentration of sRNA in NC group was 100 noml/L) • C. solution A and solution B were mixed well and let stand for 15 min, and then was added to each well at a 20 uL system • positive group: the concentration of paclitaxel was adjusted to 100 nmol/L • Note: 100 uL of nuclease-free water was added to 2 nmol of small RNA dry powder for dissolution at a storage concentration of 20 umol/L
(§5) 1) H460 and A549 cells with a cell density of more than 90% in 10 cm^2 dishes were plated in 96-well plates according to the cell growth rate, and transfected after 12 h, and the groups (3 wells per group) were divided as follows: • blank control group: 20 uL of opti-MEM • negative control group (NC group) and experimental group: • A. 10 uL of opti-MEM and 0.2 uL of iMax were mixed well for 5 min • B. 10 uL of opti-MEM and small RNA were mixed well (the concentration gradient of H460 cell experimental group was set as: 0.1 noml/L, 0.3 noml/L, 1 noml/L, 3 noml/L, 10 noml/L, 30 noml/L, 100 noml/L, 300 noml/L; the concentration gradient of A549 cell experimental group was set as: 0.01 noml/L, 0.03 nmol/L, 0.1 noml/L, 0.3 noml/L, 1 noml/L, 3 noml/L, 10 noml/L, 30 noml/L, 100 noml/L, 300 noml/L; the final concentration of sRNA in NC group was 100 noml/L) • C. solution A and solution B were mixed well and let stand for 15 min, and then a 20 uL system was added at a 20 uL system • Note: 100 uL of nuclease-free water was added to 2 nmol of small RNA dry powder for dissolution at a storage concentration of 20 umol/L

[2] = test system: H460 cells; assay: as above; format: cell-based, human; conditions: concentration gradient, MTS 48 h after transfection
Experimental: as §1, §2, §3, §4, §5

Substance	proliferation-inhibiting function (cell activity, MTS) [1]	proliferation-inhibiting function (cell activity, MTS) [2]
HQi-sRNA-2: small RNA derived from Scutellaria baicalensis, sequence AUGGUUCGAUUCCGGAGAGGG (listed as RNA, chemistry not given here)	concentration-dependent	concentration-dependent
MDM-sRNA-39: small RNA derived from Maytenus hookeri, sequence GGGAUUGUAGUUCAAUUGGUCAGAGCACC (listed as RNA, chemistry not given here)	concentration-dependent	concentration-dependent
MDM-sRNA-163: small RNA derived from Maytenus hookeri, sequence UGACUCUAGUCCGACUUUGUGAAAUGACU (listed as RNA, chemistry not given here)	concentration-dependent	concentration-dependent
